Data reported in patent publication US11760773B2, “Small molecule drug conjugates of gemcitabine monophosphate” (MaveriX Oncology, Inc., priority 2018, dated 2023).
Where two headings read alike, the source gives them in different places.

Assays:
[1] = Compound 1 and gemcitabine plasma PK in the male cynomolgus monkey (study h); format: in vivo; conditions: plasma; for AUC(0-inf): read-out: AUC0-inf; for MRT inf: read-out: MRT0-inf; for MRT last: read-out: MRT0-last
Protocol: Objectives: to compare the plasma pharmacokinetics and stability of the Compound 1 with Int 1-4 and in plasma following a single intravenous infusion administration of Compound 1 at 5 mg/kg and 10 mg/kg with equimolar gemcitabine at 2.28 mg/kg in male cynomolgous monkeys.
PK measurements: compare PK parameters C0, CL, Vdss, Cmax, tmax, t1/2, AUC(0-t), AUC(0-inf), MRT(0-t), MRT(0-inf) for Compound 1 and Int 1-4 with gemcitabine.

[2] = Int 1-4 dog plasma PK (study j); format: in vivo; conditions: male beagle dog; for AUC(0-inf): read-out: AUC0-inf; for MRT inf: read-out: MRT0-inf; for MRT last: read-out: MRT0-last
Protocol: Objectives: to compare the plasma pharmacokinetics and stability of Int 1-4 in plasma following single intravenous infusion administration of t 1-4 at 10 mg/kg and 20 mg/kg in the male Beagle dog.

[3] = Comparative PK of Int 1-4 versus gemcitabine in rat plasma (study i); format: in vivo, Sprague-Dawley rats; conditions: for half-life: Sprague-Dawley, rat, iv; for MRT inf: read-out: MRT0-inf; for MRT last: read-out: MRT0-last
Description: PK measurements: compare PK parameters C0, CL, Vdss, Cmax, tmax, t1/2, AUC(0-t), AUC(0-inf), MRT(0-t), MRT(0-inf) for Int 1-4 and gemcitabine.

[4] = Comparative dog plasma PK of Int 1-4 versus gemcitabine (study k); format: in vivo; conditions: male beagle dog; for AUC(0-inf): read-out: AUC0-inf; for Cmax: read-out: Cmax; for MRT inf: read-out: MRT0-inf; for MRT last: read-out: MRT0-last
Protocol: Objectives: to compare the plasma pharmacokinetics and stability of Int-4 in plasma following single intravenous infusion administration of Int 1-4 at 5 mg/kg and 10 mg/kg versus gemcitabine at 5 mg/kg in the male Beagle dog

[5] = Comparative plasma PK of Compound 1 versus Int 1-4 in male CD-1 mice (study b); format: in vivo; conditions: male, CD-1, mouse, iv
Protocol: Objectives: to compare the plasma pharmacokinetics and stability of Compound 1 with its non-phosphorylated SMDC analog (Int 1-4) and in plasma following a single intravenous infusion administration of Compound 1 at 11.6 mg/kg and 23.2 mg/kg with Int 1-4 (formulation F1 & F2) at 10.0 mg/kg in male CD-1 mice
PK measurements: compare PK parameters C0, CL, Vdss, Cmax, tmax, t1/2, AUC(0-t), AUC(0-inf), MRT(0-t), MRT(0-inf) for Compound 1 and Int 1-4

[6] = Int 1-4 and gemcitabine comparative PK in male cynomolgus monkey (study g); format: in vivo; conditions: plasma, male cynomolgus monkey; for AUC(0-inf): read-out: AUC0-inf; for MRT inf: read-out: MRT0-inf; for MRT last: read-out: MRT0-last; for Vd: read-out: Vdss
Protocol: Objectives: to compare the plasma pharmacokinetics and stability of Int 1-4 versus gemcitabine in plasma following single intravenous infusion administration of Int 1-4 at 5 mg/kg and 10 mg/kg with equimolar gemcitabine at 2.65 mg/kg and 5.29 mg/kg in male cynomolgous monkeys
PK measurements: compare PK parameters C0, CL, Vdss, Cmax, tmax, t1/2, AUC(0-t), AUC(0-inf), MRT(0-t), MRT(0-inf) for Int 1-4 with gemcitabine

[7] = after iv gemcitabine 2.28 mg/kg
[8] = after iv Int 1-4 10 mg/kg (study j)
[9] = after iv Int 1-4 20 mg/kg (study j)
[10] = plasma, Sprague-Dawley rat, after iv Int 1-4 10.0 mg/kg
[11] = plasma, Sprague-Dawley rat, after iv gemcitabine 4.47 mg/kg
[12] = after iv Int 1-4 5 mg/kg (study k)
[13] = after iv Int 1-4 10 mg/kg (study k)
[14] = after iv gemcitabine 5.29 mg/kg
[15] = 10 mg/kg, after iv Int 1-4 10.0 mg/kg, Formulation 1
[16] = 10 mg/kg, after iv Int 1-4 10.0 mg/kg, Formulation 2
[17] = 11.6 mg/kg, after iv Compound 1 11.6 mg/kg
[18] = 23.2 mg/kg, after iv Compound 1 23.2 mg/kg
[19] = after iv Int 1-4 5 mg/kg (study g)
[20] = after iv Int 1-4 10 mg/kg (study g)
[21] = after iv gemcitabine 2.65 mg/kg

## Nc1ccn([C@@H]2O[C@H](CO)[C@@H](O)C2(F)F)c(=O)n1 [Gemcitabine, gemcitabine]
[1]; after iv Compound 1 5 mg/kg
  AUC(0-t): 7.85 ng·h/mL
  half-life: 7.8 min
  AUC(0-inf): 7 ng·h/mL
  MRT inf: 0.23 h
  MRT last: 0.19 h
[1]; [7]
  AUC(0-t): 164 ng·h/mL
  C0: 13400 ng/mL
  clearance: 247 mL/min/kg
  half-life: 1.2 min
  AUC(0-inf): 165 ng·h/mL
  MRT inf: 0.02 h
  MRT last: 0.02 h
[1]; after iv gemcitabine 2.28 mg/kg, read-out: Vdss
  Vd: 0.231 L/kg
[2]; [8]
  AUC(0-t): 6160 ng·h/mL
  half-life: 3.1 h
  AUC(0-inf): 6180 ng·h/mL
  MRT inf: 3.56 h
  MRT last: 3.47 h
[2]; [9]
  AUC(0-t): 7690 ng·h/mL
  half-life: 3.55 h
  AUC(0-inf): 7880 ng·h/mL
  MRT inf: 3.28 h
  MRT last: 2.69 h
[3]; plasma, 4.47 mg/kg, plasma, Sprague-Dawley rat, after iv gemcitabine 4.47 mg/kg
  half-life: ~3.3 h
[3]; plasma, 10 mg/kg, plasma, Sprague-Dawley rat, after iv Int 1-4 10.0 mg/kg
  half-life: ~9.43 h
[3]; [10]
  AUC0-inf/AUC0-last: 235%
  AUC(0-inf): 6000 ng·h/mL
  AUC(0-t): 2760 ng·h/mL
  T1/2: 9.43 h
  MRT inf: 13.8 h
  MRT last: 3.38 h
[3]; plasma, Sprague-Dawley rat, after iv gemcitabine
  clearance: 4.36 mL/min/kg
[3]; [11]
  AUC0-inf/AUC0-last: 122%
  AUC(0-inf): 18000 ng·h/mL
  AUC(0-t): 14700 ng·h/mL
  C0: 8410 ng/mL
  T1/2: 3.26 h
  MRT inf: 4.63 h
  MRT last: 2.82 h
[3]; plasma, Sprague-Dawley rat, after iv gemcitabine 4.47 mg/kg, read-out: Vdss
  Vd: 1.21 L/kg
[3]; rat versus mouse plasma, iv gemcitabine
  plasma half-life in rats relative to mice: 3 ×
[4]; [12]
  AUC(0-t): 2330 ng·h/mL
  half-life: 2.01 h
  AUC(0-inf): 2390 ng·h/mL
  Cmax: 872 ng/mL
  MRT inf: 2.7 h
  MRT last: 2.48 h
[4]; [13]
  AUC(0-t): 4140 ng·h/mL
  half-life: 1.6 h
  AUC(0-inf): 4290 ng·h/mL
  MRT inf: 2.45 h
  MRT last: 2.16 h
[4]; [14]
  AUC(0-t): 8230 ng·h/mL
  C0: 11500 ng/mL
  clearance: 11 mL/min/kg
  half-life: 2.04 h
  AUC(0-inf): 8600 ng·h/mL
  Cmax: 8620 ng/mL
  MRT last: 2.19 h
[4]; after iv gemcitabine 5.29 mg/kg, read-out: Vdss
  Vd: 1.61 L/kg
[5]; [15]
  AUC(0-t): 98.6 ng·h/mL
  half-life: 1.62 h
[5]; 10 mg/kg, after iv Int 1-4 10.0 mg/kg, Formulation 1, read-out: AUC0-inf
  AUC(0-inf): 120 ng·h/mL
[5]; 10 mg/kg, after iv Int 1-4 10.0 mg/kg, Formulation 1, read-out: Cmax
  Cmax: 107 ng/mL
[5]; 10 mg/kg, after iv Int 1-4 10.0 mg/kg, Formulation 1, read-out: MRT0-inf
  MRT inf: 1.98 h
[5]; 10 mg/kg, after iv Int 1-4 10.0 mg/kg, Formulation 1, read-out: MRT0-last
  MRT last: 1.15 h
[5]; 10 mg/kg, after iv Int 1-4 10.0 mg/kg, Formulation 1, read-out: Tmax
  Tmax: 3.67 min
[5]; [16]
  AUC(0-t): 85.1 ng·h/mL
  half-life: 1.66 h
[5]; 10 mg/kg, after iv Int 1-4 10.0 mg/kg, Formulation 2, read-out: AUC0-inf
  AUC(0-inf): 102 ng·h/mL
[5]; 10 mg/kg, after iv Int 1-4 10.0 mg/kg, Formulation 2, read-out: Cmax
  Cmax: 93.6 ng/mL
[5]; 10 mg/kg, after iv Int 1-4 10.0 mg/kg, Formulation 2, read-out: MRT0-inf
  MRT inf: 2.1 h
[5]; 10 mg/kg, after iv Int 1-4 10.0 mg/kg, Formulation 2, read-out: MRT0-last
  MRT last: 1.25 h
[5]; 10 mg/kg, after iv Int 1-4 10.0 mg/kg, Formulation 2, read-out: Tmax
  Tmax: 2 min
[5]; [17]
  AUC(0-t): 97.9 ng·h/mL
  half-life: 1.04 h
[5]; 11.6 mg/kg, after iv Compound 1 11.6 mg/kg, read-out: AUC0-inf
  AUC(0-inf): 112 ng·h/mL
[5]; 11.6 mg/kg, after iv Compound 1 11.6 mg/kg, read-out: Cmax
  Cmax: 152 ng/mL
[5]; 11.6 mg/kg, after iv Compound 1 11.6 mg/kg, read-out: MRT0-inf
  MRT inf: 1.41 h
[5]; 11.6 mg/kg, after iv Compound 1 11.6 mg/kg, read-out: MRT0-last
  MRT last: 1.01 h
[5]; 11.6 mg/kg, after iv Compound 1 11.6 mg/kg, read-out: Tmax
  Tmax: 1.5 min
[5]; [18]
  AUC(0-t): 202 ng·h/mL
  half-life: 1.03 h
[5]; 23.2 mg/kg, after iv Compound 1 23.2 mg/kg, read-out: AUC0-inf
  AUC(0-inf): 218 ng·h/mL
[5]; 23.2 mg/kg, after iv Compound 1 23.2 mg/kg, read-out: Cmax
  Cmax: 222 ng/mL
[5]; 23.2 mg/kg, after iv Compound 1 23.2 mg/kg, read-out: MRT0-inf
  MRT inf: 1.4 h
[5]; 23.2 mg/kg, after iv Compound 1 23.2 mg/kg, read-out: MRT0-last
  MRT last: 1.11 h
[5]; 23.2 mg/kg, after iv Compound 1 23.2 mg/kg, read-out: Tmax
  Tmax: 2 min
[6]; [19]
  AUC(0-t): 5.37 ng·h/mL
  half-life: 0.15 h
  AUC(0-inf): 8.13 ng·h/mL
  MRT inf: 0.24 h
  MRT last: 0.15 h
  Vd: 0.349 L/kg
[6]; [20]
  AUC(0-t): 16.2 ng·h/mL
  half-life: 0.18 h
  AUC(0-inf): 17.5 ng·h/mL
  MRT inf: 0.26 h
  MRT last: 0.21 h
[6]; [21]
  AUC(0-t): 154 ng·h/mL
  C0: 17000 ng/mL
  clearance: 323 mL/min/kg
  half-life: 0.02 h
  AUC(0-inf): 154 ng·h/mL
  MRT inf: 0.01 h
  MRT last: 0.01 h
  Vd: 0.221 L/kg
